Laboratory results from US9163018B2, “Method of treatment of age-related macular degeneration (AMD)” (Prana Biotechnology Limited, priority 2006, dated 2015).

Legend:
[1] = target: T1, Aβ 1-42 (Homo sapiens, UniProt P05067); assay: Fluorometric H2O2 assay (inhibition of Abeta H2O2 production); assay type: biochemical; conditions: concentration required to inhibit 50% of Abeta H2O2 production; read-out: H2O2 IC50
T1 construct: The reaction solutions contained Aβ 1-42 at concentrations
Method: Assay 1. Fluorometric H2O2 Assay
A fluorometric assay was used to test the ability of a test compound to inhibit hydrogen peroxide generation by Aβ in the presence of copper based on dichlorofluoroscein diacetate (DCF; Molecular Probes, Eugene Oreg.). The DCF solution (5 mM) in 100% dimethyl sulphoxide (previously purged with argon for 2 hr at 20° C.) was deacetylated in the presence of 0.25M NaOH for 30 min and neutralized at pH 7.4 to a final concentration of 1 mM. Horseradish peroxidase (HRP) stock solution was prepared to 1 μM at pH 7.4. The reactions were carried out in PBS, pH 7.4 in a 96 well plate (total volume=250 μl/well). […] The reaction mixture was incubated at 37 C for 60 min. […] H2O2 concentration may be established by comparing fluorescence with the H2O2 standards, Inhibition of Aβ H2O2 production was assayed by including a given concentration of test compound(s) in the test wells.

[2] = system: primary cortical neuronal cultured cells; assay: Test compound cytotoxicity, MTS assay, primary cortical neuronal cultures; assay type: cell-based, mouse; conditions: for Cytotox (% viable) Neuronal cells at 1 μM: 1 μM test compound; for Cytotox (% viable) Neuronal cells at 10 μM: 10 μM test compound
Method: Assay 2. Neurotoxicity Assays
Primary Cortical Neuronal Cultures
Media was then replaced with Neurobasal media (Invitrogen Life Technologies) and B27 supplements (Invitrogen Life Technologies). Cultures were maintained at 37° C. in 5% CO2. Prior to experimentation, the culture medium was replaced with Neurobasal media and B27 minus antioxidants (Invitrogen Life Technologies).
Assay 3. MTS Assay for Cell Viability
Cell viability is determined using the MTS assay. Culture medium is replaced with fresh neurobasal medium plus B27 supplements minus antioxidants. 1/10th volume MTS solution (Cell Titre 96 Aqueous One, Promega Corporation) and incubated at 37° C., 2 hrs. 200 microliter aliquots are measured with a spectrophotometer at 560 nm.
Assay 4. Assay for Test Compound Cytoxicity
Neuronal cortical cells were cultured for five days as per Assay 2 in NB media and B27 supplement.
On day six the test compounds were added to the neuronal cell cultures in NB media and B27 supplement minus antioxidants.
Test compounds were dissolved in 100% DMSO to a concentration of 2.5 mM (10 mM if excess compound was weighed out per vial—then diluted to 2.5 mM).
Test compounds were not added directly to cells, instead they were added to a 48 well ‘Drug Plate’ as comprised below:
The Drug Plate was incubated at 37° C. for 15 mins. 200 μl of each well was added in triplicate to the corresponding cell plate. The cell plate was incubated at 37 C, for 4 days.
On completion of the assay, 1/10 volume MTS was added per well of plate (ie 25 μl/250 μl). The plates were incubated at 37 C for 2 hrs, and then absorbance was read at 560 nm.

[3] = system: Abeta in extract of post-mortem human AD brain tissue; assay: BAS: human brain amyloid solubilization assay; assay type: biochemical; conditions: max effect across the concentration range, referenced to baseline PBS
Method: Assay 5. Human Brain Amyloid Solubilization Assay
This assay was performed in order to assess the ability of a test compound to mobilise Aβ, as an example form of amyloid, from the insoluble to the soluble phase of an extract of tissue from post mortem human AD brain.
Up to 0.5 g of plaque-bearing cortex without meninges was homogenized using a DIAX 900 homogenizer (Hendolph and Co, Kelheim, Germany) or other suitable device for three 30-second periods at full speed in 2 ml of ice-cold phosphate-buffered saline, pH 7.4. To obtain the phosphate-buffered saline-extractable fraction, the homogenate was centrifuged at 100,000×g for 30 min and the supernatant removed. Alternatively, the tissue was freeze dried then pulverized to form a powder which was then weighed out into aliquots for extraction as above. Supernatant, either freeze-dried and resuspended or in unconcentrated form, was dissolved in 200 μl of Tris-Tricine sodium dodecyl sulfate (SDS) sample buffer pH 8.3 containing 8% SDS, 10% 2-mercaptoethanol. Aliquots (10 μl) were then boiled for 10 minutes before SDS-polyacrylamide gel electrophoresis. The insoluble fraction of the cortical samples was obtained by resuspending the initial pelleted sample in 1 ml of phosphate-buffered saline, A 50-μl aliquot of this suspension was then boiled in […] of sample buffer as above.
Tris-Tricine polyacrylamide gel electrophoresis was performed by loading appropriately diluted samples on to 10% to 20% gradient gels (Novex, San Diego, Calif.) followed by transfer on to 0.2-μm nitrocellulose membrane (Bio-Rad, Hercules, Calif.). Aβ was detected by using monoclonal antibody W02, which detects residues 5 through 8, […] (or another suitable antibody) in conjunction with horseradish peroxidase-conjugated rabbit anti-mouse IgG (Dako, Denmark), and visualized by using enhanced chemiluminescence (eg ECL; Amersham Life Science, Buckinghamshire, UK). Each gel included three lanes containing 0.5, 1, and 2 ng of synthetic Aβ40 (Keck Laboratory, Yale University, New Haven, Conn.) as reference standards.
Blot films were scanned by using a suitable imaging system such as the UVP gel documentation system, and densitometry performed using suitable software, eg UVP Labworks. The dynamic range of the film/scanner was determined by using a step tablet (No. 911ST600, Kodak, Rochester N.Y.), a calibrated film exposed by the manufacturer to provided steps of known increasing intensity. The quantifiable range of signal intensity for densitometric analysis of the mono- and dimeric Aβ bands was based on the comparison with a curve obtained by scanning and densitometry of the step tablet.
All samples were analyzed at least twice, and gel loadings and dilutions were adjusted to fit within the quantifiable region of the standard curve. The proportion of ‘soluble’ to ‘insoluble’ Aβ may be used to determine the efficiency of extraction of a test compound compared with the efficiency of a known compound. The insoluble Aβ being comprised of the pelletable fraction derived from the insoluble amyloid plaque from the above cortical samples and the soluble fraction comprising monomeric and/or oligomeric soluble Aβ.

T1 sequence (P05067 672-713 limits assumed): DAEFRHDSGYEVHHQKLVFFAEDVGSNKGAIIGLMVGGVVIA

Row | SMILES | IC50 [1] | Cytotox (% viable) Neuronal cells at 1 μM [2] | Cytotox (% viable) Neuronal cells at 10 μM [2] | BAS max effect [3]
1 | Oc1ccc(/C=C/c2ccc3cccc(O)c3n2)cc1 [PB 89] | 2500 nM | 100% | 75% | 233%
2 | Oc1c(Br)cc(-c2cc(F)cc(F)c2)c2cccnc12 [PB 853] | 770 nM | Neuronal cells: 95, 95% | Neuronal cells: 95, 95% | 221%
3 | COc1cc(NS(=O)(=O)c2ccc(C)cc2)c2ncccc2c1 [PB 116] | 500 nM | 81% | 60% | 220%
4 | Oc1c(-c2ccccc2)cc(-c2ccccc2)c2cccnc12 [PB 809] | < 1800 nM | 97% | 26% | 146%
5 | Cl.Nc1ccc(O)c2ncccc12 [PB 44] | > 10000 nM | 108% | 71% | 191%
6 | COc1cccc(-c2cc(Cl)c3cccnc3c2O)c1 [PB 810] | < 700 nM | 83% | 71% | 184%
7 | Cc1ccccc1-c1cc(Cl)c2cccnc2c1O [PB 854] | 780 nM | Neuronal cells: 100, 100% | Neuronal cells: 100, 100% | 520%
8 | Cc1cc(C)c2cccnc2c1O [PB 59] | 700 nM | 86% | 85% | 293%
9 | O=C(NCCc1cnc[nH]1)c1ccc2cccc(O)c2n1 [PB 948] | 150 nM | 100, 100% | 100, 100% | 576%
10 | CN1CCCN(C)CCN(C)CCCN(C)CC1 [PB 933] | 110 nM | – | Neuronal cells: 127% (at 10 μM) | 279%
11 | COc1ccc(-c2cc(Cl)c3cccnc3c2O)cc1 [PB 814] | < 1100 nM | 97% | 31% | 209%
12 | Cc1cnc(NC(=O)c2ccc3cccc(O)c3n2)s1 [PB 953] | < 420 nM | 94% | 68% | 325%
13 | O/N=C/c1ccc2cccc(O)c2n1 [PB 969] | 540 nM | 100% | 95% | 385%
14 | Cc1ccc(-c2ccc(C)cn2)nc1 [PB 896] | 150 nM | – | Neuronal cells: 86% (at 10 uM) | 358%
15 | O=C(CNC(=O)c1cc(O)c2cccc(O)c2n1)NCc1ccccn1 [PB 988] | > 10000 nM | Neuronal cells: 93, 93% | Neuronal cells: 93, 93% | 137%
